Measurements: paper PMC9718795, “Caffeic acid N-[3,5-bis(trifluoromethyl)phenyl] amide as a non-steroidal inhibitor for steroid 5α-reductase type 1 using a human keratinocyte cell-based assay and molecular dynamics” (Scientific Reports, 2022)
Read-outs that look alike come from different tables or passages of the source.

Tests used:
[1] = target: T1, steroid 5α-reductase type 1 (SRD5A1) (Homo sapiens, UniProt P18405); experiment: HaCaT cell-based SRD5A1 inhibitory assay with direct DHT detection by HPTLC; conditions: HaCaT, read-out: % Inhibition of DHT production ± SD; for inhibition at 20 µM: compound 20 µM, 24 h
T1 construct: HaCaTs-produced SRD5A1 smoothly converted testosterone to DHT; endogenous in cells; host or cells: HaCaT human keratinocytes
T1 sequence (P18405 1-259): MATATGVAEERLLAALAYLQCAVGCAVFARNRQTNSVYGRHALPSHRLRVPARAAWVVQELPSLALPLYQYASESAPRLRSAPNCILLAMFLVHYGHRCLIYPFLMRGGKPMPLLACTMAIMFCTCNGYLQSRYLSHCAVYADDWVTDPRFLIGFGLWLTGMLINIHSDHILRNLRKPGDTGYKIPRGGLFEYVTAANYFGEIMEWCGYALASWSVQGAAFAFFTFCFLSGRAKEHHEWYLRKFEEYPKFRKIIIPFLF

[2] = Cell viability (MTT) run in parallel with the HaCaT-based SRD5A1 inhibitory assay; parameters: species or system human; conditions: human
HaCaTs-produced SRD5A1 = target: T2, HaCaTs-produced SRD5A1 (Homo sapiens, UniProt P18405); experiment: Whole-cell-based kinetic study of HaCaT-produced SRD5A1 with HPTLC; conditions: no inhibitor, 12 h
T2 construct: HaCaTs-produced SRD5A1 smoothly converted testosterone to DHT; endogenous in cells; host or cells: HaCaT human keratinocytes
T2 sequence (P18405 1-259): T1 sequence (P18405 1-259)
Description: (§1) The in vitro whole HaCaT cell-based assay for the kinetic inhibition against SRD5A1 included culturing the cells for 48 h, treating the cells with testosterone and compound 4 for 12 h and evaluating the % intensity of DHT and cell viability using HPTLC analysis and MTT assay, respectively. The HaCaT cells were seeded and incubated as same as the method shown in 3.8. For the evaluation of dose-dependent activity of testosterone, the different concentration of testosterone (0 − 50 μM) and DMEM with 0.1% DMSO were added. […] DMEM with 0.1% DMSO was used as negative control. Then, the cells were incubated for 12 h. The collection of cell culture medium, extraction process, sample preparation and HPTLC detection were prepared by the method mentioned above (3.8). The obtaining chromatogram was visualized by CAMAG HPTLC Software vision CATS and analyzed by Image J software. The percentage of DHT intensity was calculated based on the intensity of DHT normalized by the standard of DHT at 100 μM. At the same time, the cell viability of the treated cells was assessed by the MTT assay. Each experiment was repeated in triplicate.

[3] = Cell viability (MTT) in the whole-cell kinetic study; assay type: cell-based; conditions: human, HaCaT cells, testosterone 0−50 µM, read-out: Cell viabilities
Description: as §1

[4] = target: T1, steroid 5α-reductase type 1 (SRD5A1); parameters: method as in PMID 28250347; conditions: same HaCaT cell-based assay; read-out: IC50 of SRD5A1 inhibition; cited from earlier work
[5] = tested on: human keratinocyte (HaCaT) cells; experiment: In vitro cytotoxic MTT assay against HaCaT cells; assay type: cell-based; conditions: 0.5–50 µM, 24 h
Description: (§2) The cytotoxicity of caffeic acid and its amide derivatives were evaluated with two cell lines, human keratinocyte (HaCaT) and DP cells, using the common cell viability assay with MTT. HaCaT and DP cells were seeded at 1 × 10^4 cell/well in 96-well plates in a complete DMEM medium, incubated overnight, and treated with test compounds at 0–50 µM for 24 h. The stock solutions of all the test compounds were prepared in DMSO. Each compound was serially diluted in DMEM to achieve concentrations at 0.5–50 µM; DMEM was used as the negative control. After 24 h of treatment, the culture medium was removed, and cell viability was determined by adding 100 µL of 0.5 mg/mL MTT at 37 °C in darkness for 3 h. After removing the MTT solution, 100 µL of DMSO was added to each well to dissolve the purple formazan crystals. The absorbance was measured at 570 nm using a microplate reader, and the IC50 value was calculated. Each experiment was performed in triplicates.

[6] = tested on: dermal papilla (DP) cells; experiment: In vitro cytotoxic MTT assay against DP cells; assay type: cell-based, human; conditions: 0.5–50 µM, 24 h
Description: as §2

HaCaT cells = experiment: Cell viability (MTT) run in parallel with the HaCaT-based SRD5A1 inhibitory assay; parameters: species or system human; conditions: human, 24 h, 20 µM
[7] = substrate: C[C@]12CC[C@H]3[C@@H](CCC4=CC(=O)CC[C@@]43C)[C@@H]1CC[C@@H]2O; experiment: Whole-cell-based kinetic study of HaCaT-produced SRD5A1 with HPTLC; parameters: species or system human; conditions: other: no inhibitor, Michaelis–Menten, 12 h
Description: as §1

[8] = HaCaT cells, compound 20 µM, HaCaT, 24 h, read-out: % Cell viability ± SD

C[C@]12CC[C@H]3[C@@H](CCC4=CC(=O)CC[C@@]43C)[C@@H]1CC[C@@H]2O [Testosterone, reference compound]
inhibition at 10 µM [1]: 0%
viability at 24 h, 10 µM ([2]; 10 µM testosterone, substrate only, read-out: % Cell viability ± SD): 100%
Vmax in the absence of inhibitors (HaCaTs-produced SRD5A1): 130.9
% DHT intensity ± S.D. (HaCaTs-produced SRD5A1; testosterone 1 µM): 15.35 ± 9.10%
% DHT intensity ± S.D. (HaCaTs-produced SRD5A1; testosterone 5 µM): 43.55 ± 10.80%
% DHT intensity ± S.D. (HaCaTs-produced SRD5A1; testosterone 10 µM): 65.05 ± 13.06%
% DHT intensity ± S.D. (HaCaTs-produced SRD5A1; testosterone 25 µM): 103.52 ± 20.66%
% DHT intensity ± S.D. (HaCaTs-produced SRD5A1; testosterone 50 µM): 105.75 ± 11.30%
viability at 12 h [3]: ~80%

CC(C)(O)c1cc2c(o1)C(=O)c1ccccc1C2=O [avicequinone C]
IC50 [4]: 4.45 ± 0.42 µM

CC(C)(C)NC(=O)C=Cc1ccc(O)c(O)c1 [Compound 3, 3-(3,4-dihydroxyphenyl)-N-(1,1-dimethylethyl)-2-propenamide]
inhibition at 20 µM [1]: 2 ± 2.12%
Toxicity against HaCaT cells [5]: no toxicity
Toxicity against DP cells [6]: no toxicity
viability at 24 h, 20 µM [2, 8]: 102 ± 2.09%

O=C(O)C=Cc1ccc(O)c(O)c1 [Compound 1, 3,4-dihydroxycinnamic acid]
Toxicity against HaCaT cells [5]: no toxicity
Toxicity against DP cells [6]: no toxicity
viability at 24 h, 20 µM ([2]; % Cell viability ± SD): 86%
% Cell viability ± SD (HaCaT cells): 86.38 ± 5.70%

C[C@]12C=CC(=O)N[C@@H]1CC[C@@H]1[C@@H]2CC[C@]2(C)[C@@H](C(=O)Nc3cc(C(F)(F)F)ccc3C(F)(F)F)CC[C@@H]12 [Dutasteride, reference compound]
inhibition at 2.5 µM [1]: 100%
viability at 24 h, 2.5 µM ([2]; HaCaT cells, 2.5 µM, positive control, HaCaT, 24 h, read-out: % Cell viability ± SD): 88.14 ± 0.11%

O=C(C=Cc1ccc(O)c(O)c1)Nc1ccccc1 [Compound 2, 3-(3,4-dihydroxyphenyl)-N-phenyl-2-propenamide]
inhibition at 20 µM [1]: 4.84 ± 2.12%
Toxicity against HaCaT cells [5]: no toxicity
Toxicity against DP cells [6]: no toxicity
viability at 24 h, 20 µM [2, 8]: 102.9 ± 0.4%

B1: HaCaTs-produced SRD5A1 (Homo sapiens) (protein)
chain: T1 sequence (P18405 1-259)
notes: HaCaTs-produced SRD5A1 smoothly converted testosterone to DHT; endogenous in cells; host or cells: HaCaT human keratinocytes
Km [7]: 9.287 µM
